Data reported in patent US5874078A, “Reagent composition of glutamate dehydrogenase from pseudomonas” (Toyo Boseki Kabushiki Kaisha, priority 1994, dated 1999).
Read-outs that look alike come from different tables or passages of the source. Values belong to the compound of their own block, whether it stands above or below them.

Legend:
[1] = target: NAD+-dependent glutamate dehydrogenase (EC 1.4.1.2) from Peptococcus aerogene (Peptoniphilus asaccharolyticus, UniProt P28997); details: read-out: Km Value to NH3; Table 3; Can. J. Microbiol. 18, 881 (1972); cited from earlier work
Chain of NAD+-dependent glutamate dehydrogenase (EC 1.4.1.2) from Peptococcus aerogene (P28997 whole entry): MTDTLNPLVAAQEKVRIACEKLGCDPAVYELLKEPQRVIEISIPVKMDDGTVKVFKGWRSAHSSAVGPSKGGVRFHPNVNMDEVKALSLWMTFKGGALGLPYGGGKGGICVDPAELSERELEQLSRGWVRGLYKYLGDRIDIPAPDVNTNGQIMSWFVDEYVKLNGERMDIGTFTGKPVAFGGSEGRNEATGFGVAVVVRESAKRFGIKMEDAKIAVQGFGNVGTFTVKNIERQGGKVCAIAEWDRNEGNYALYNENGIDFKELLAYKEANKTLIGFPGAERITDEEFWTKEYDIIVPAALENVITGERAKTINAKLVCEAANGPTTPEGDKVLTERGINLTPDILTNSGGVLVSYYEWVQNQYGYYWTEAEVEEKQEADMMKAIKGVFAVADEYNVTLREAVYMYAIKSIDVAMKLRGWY

[2] = system: glutamate dehydrogenase from Pseudomonas sp. 433-3 (FERM P-14092); assay: Km values of glutamate dehydrogenase; type: biochemical
Description: The above reaction mixture solution (2.9 ml) is taken in a cuvette and subjected to a preliminary heating at 30° C. for about five minutes. Then the reaction is initiated by adding 0.1 ml of an enzyme solution thereto, decrease in absorbance of 340 nm in a spectrophotometer controlled at 30° C. is recorded for 3-4 minutes and, out of its linear portion, the decrease in the absorbance per minute is determined. A blank test is carried out according to the same operations as above except that 0.1M Tris-HCl buffer (pH: 8.3) is added instead of the enzyme solution. […]
The above reaction mixture solution (2.9 ml) was taken in a cuvette and subjected to a preliminary heating at 30° C. for about five minutes. Then the reaction was initiated by adding 0.1 ml of an enzyme solution thereto, […] at 30° C. was recorded for 3-4 minutes and, out of its linear portion, the decrease in the absorbance per minute was determined. A blank test was carried out according to the same operations as above except that 0.1M Tris-HCl buffer (pH: 9.0) was added instead of the enzyme solution.

[3] = system: NAD+-dependent glutamate dehydrogenase (EC 1.4.1.2) from Synechocystis sp.; details: read-out: Km Value to NH3; Table 3; FEBS Lett. 285, 35 (1991); cited from earlier work
[4] = system: NAD+-dependent glutamate dehydrogenase (EC 1.4.1.2) from Clostridium sp. SB4; details: read-out: Km Value to NH3; Table 3; The Enzymes, 3rd Ed. 11, 293 (1975); cited from earlier work
[5] = system: glutamate dehydrogenase from Pseudomonas sp. 433-3 (FERM P-14092); assay: Activation by ADP (reductive amination activity); type: biochemical; details: pH 8.3, 30° C.
Description: (§1) A method of measuring an activity of the glutamate dehydrogenase of the present invention by means of a reductive amination will be as follows.
(§2) The above reaction mixture solution (2.9 ml) is taken in a cuvette and subjected to a preliminary heating at 30° C. for about five minutes. Then the reaction is initiated by adding 0.1 ml of an enzyme solution thereto, decrease in absorbance of 340 nm in a spectrophotometer controlled at 30° C. is recorded for 3-4 minutes and, out of its linear portion, the decrease in the absorbance per minute is determined. A blank test is carried out according to the same operations as above except that 0.1M Tris-HCl buffer (pH: 8.3) is added instead of the enzyme solution. The way of expression of an activity of the glutamate dehydrogenase is in such a manner that the amount of the enzyme by which 1 micromole of NADH is oxidized per minute under the above-mentioned conditions is defined as one unit (U).
(§3) ADP was added to the reagent for measuring the activity of glutamate dehydrogenase of the present invention (a reductive amination) to make it 2.5 mM and the resulting activity was compared with that where nothing was added.

[6] = target: T1, Bovine Liver CLDH (glutamate dehydrogenase derived from bovine liver) (Bos taurus, UniProt P00366); assay: Activation by ADP (reductive amination activity); type: biochemical; details: 2.5 mM ADP, pH 8.3, 30° C., read-out: activity with 2.5 mM ADP (without ADP = 100%)
T1 construct: Bovine Liver CLDH; from tissue; host or cells: bovine liver
T1 sequence (P00366 58-558): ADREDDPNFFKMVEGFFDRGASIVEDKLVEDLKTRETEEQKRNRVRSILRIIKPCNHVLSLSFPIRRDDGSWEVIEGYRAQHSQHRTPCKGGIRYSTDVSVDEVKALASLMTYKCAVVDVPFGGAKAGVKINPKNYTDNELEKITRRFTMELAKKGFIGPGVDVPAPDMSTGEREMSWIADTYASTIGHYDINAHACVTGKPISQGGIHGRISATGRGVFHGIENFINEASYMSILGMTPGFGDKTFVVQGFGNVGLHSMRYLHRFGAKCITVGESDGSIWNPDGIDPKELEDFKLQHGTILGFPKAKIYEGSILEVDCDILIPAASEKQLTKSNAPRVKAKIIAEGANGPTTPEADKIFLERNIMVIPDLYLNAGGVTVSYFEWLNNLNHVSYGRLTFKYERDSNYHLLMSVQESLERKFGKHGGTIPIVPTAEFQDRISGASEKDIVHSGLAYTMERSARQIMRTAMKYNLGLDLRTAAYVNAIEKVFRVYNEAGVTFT
Description: as §1, §2, §3

Structure (SMILES): N [ammonia]
Km [1]: 18.4 mM
Km ([2]; Table 3, This Invention, read-out: Km Value to NH3): 8.5 mM
Km ([2]; read-out: Km value to ammonia): 8.5 mM
Km [3]: 4.5 mM
Km [4]: 0.32 mM

Structure (SMILES): NC(=O)C1=CN([C@@H]2O[C@H](COP(=O)(O)OP(=O)(O)OC[C@H]3O[C@@H](n4cnc5c(N)ncnc54)[C@H](O)[C@@H]3O)[C@@H](O)[C@H]2O)C=CC1 [NADH]
Km ([2]; read-out: Km value to NADH): 0.19 mM

The next lines start with the values.

Km ([2]; read-out: Km value to L-glutamic acid): 17 mM
Structure (SMILES): N[C@@H](CCC(=O)O)C(=O)O [L-glutamic acid]

activity with 2.5 mM ADP (without ADP = 100%) [5]: 100%
activity at 2500 µM [6]: 145%
Structure (SMILES): Nc1ncnc2c1ncn2[C@@H]1O[C@H](COP(=O)(O)OP(=O)(O)O)[C@@H](O)[C@H]1O [ADP]

Km ([2]; read-out: Km value to NAD^+): 0.1 mM
Structure (SMILES): NC(=O)c1ccc[n+]([C@@H]2O[C@H](COP(=O)(O)OP(=O)([O-])OC[C@H]3O[C@@H](n4cnc5c(N)ncnc54)[C@H](O)[C@@H]3O)[C@@H](O)[C@H]2O)c1 [NAD^+]
